Measured values published in patent US8003675B2 (priority 2006, dated 2011).

Tests used:
Stagonospora nodorum = assay: Test for preventive effect on wheat glume blotch; format: in vivo; conditions: wheat (Nohrin No. 61), foliar spray 500 ppm, examined 12 days after inoculation
Method: Disease development degree=[(n0×0+n1×1+n2×2+n3×3+n4×4)/4×N]×100 [Expression 2]
n4: number of leaves of disease development degree 4 Protective value=[1−(disease development degree in treated plants)/(disease development degree in untreated plants)]×100 [Expression 3]
10 wheat seeds (variety: Nohrin No. 61) were sowed in a plastic cup of 5.5 cm in diameter and were grown in a greenhouse for 7 days. One of wettable powders prepared in accordance with Example 5 was diluted with water so that the concentration of active ingredient became 500 ppm, a spreader (brand name: KUMITEN) was added for the dilution factor to be 3,000 times, and a sufficient amount of the resulting solution was sprayed onto the leaves of wheat (1.5- to 2-leaf stage) using a spray gun. After air-drying, a suspension of the pycniospores of Stagonospora nodorum was sprayed for inoculation. Immediately thereafter, the wheat leaves were transferred into a moist chamber of 25° C. and allowed to stand under a bright condition for 48 hours for infection. Then, the wheat leaves were transferred into the greenhouse and, 12 days after the inoculation, the disease development index of each first leaf was examined according to the standard of Table 15. A disease development degree was calculated from the above expression 2. A protective value (%) was calculated from the above expression 3 and evaluated according to the standard of Table 16.

Pyricularia oryzae = format: in vivo; conditions: paddy rice (Aichi Asahi), submerged application, 10 g a.i./10 a, inoculated 10 days after treatment, lesions counted 6 days after inoculation
[1] = test system: Colletotrichum orbiculare; assay: Test for preventive effect for cucumber anthracnose; format: in vivo; conditions: cucumber (Sagamihanjiro), soil drench 10 ml at 1 ppm, inoculated 7 days later, lesions counted 7 days later
Method: Four cucumber seeds (variety: Sagamihanjiro) were sowed in a plastic cup of 5.5 cm in diameter, at a depth of 2 cm, and were grown in a greenhouse for 7 days. One of wettable powders prepared according to Example 5 was diluted with water so that the concentration of active ingredient became a given level. 10 ml of the dilution was poured into the soil at the root of young cucumber seedlings having cotyledons. 7 days later, a conidia suspension (10^5 to 10^6/ml) of Colletotrichum orbiculare which had been cultured in a PDA plate medium, was uniformly inoculated to the cucumber plant by hand spraying. The cup was allowed to stand, for infection, in a moist chamber of 25° C. for 24 hours. Then, the cup was allowed to stand on a basin in a glass greenhouse and, 7 day later, the number of lesions of all cotyledons in pot was examined. A protective value was calculated from the above expression 1 and evaluated according to the standard of Table 12.
Using the above-shown comparative compound, a wettable powder was prepared according to Example 5. A protective value thereof was calculated in the same manner as in the above Test Example.

SMILES	Evaluation (Stagonospora nodorum)	Evaluation (Pyricularia oryzae)	Protective value (Pyricularia oryzae) [%]	Evaluation [1]	Protective value [1] [%]	melting point [°C]
O=C(OCc1snc(Cl)c1Cl)c1c(Cl)cccc1Cl [II-78]	B (protective value: less than 75% to 50% or more)	C (protective value: less than 80.0% to 50.0% or more)	77.5			
CS(=O)(=O)c1ccccc1C(=O)OCc1snc(Cl)c1Cl [II-66]	A (protective value: 100% to 75% or more)	A (protective value: 100% to 90.0% or more)	97.8			
Cc1cc(COC(=O)c2cc(C)ns2)sn1 [Comparative compound, reference compound]	D (protective value: less than 25%)	D (protective value: less than 50.0%)	45.9	C (protective value: less than 80.0% to 50.0% or more)	73.3	
Cc1ccccc1C(=O)OCc1snc(Cl)c1Cl [II-5]	A (protective value: 100% to 75% or more)	A (protective value: 100% to 90.0% or more)	94.6			
CC=CC=CC(=O)OCc1snc(Cl)c1Cl [I-24]		A (protective value: 100% to 90.0% or more)	95.2	B (protective value: less than 90.0% to 80.0% or more)	89.1	
CC(=O)OCc1snc(Cl)c1Cl [I-1]		A (protective value: 100% to 90.0% or more)	96.1	B (protective value: less than 90.0% to 80.0% or more)	86.9	
COc1ccccc1C(=O)OCc1snc(Cl)c1Cl [II-57]	A (protective value: 100% to 75% or more)	A (protective value: 100% to 90.0% or more)	98.4			
N#Cc1ccccc1C(=O)OCc1snc(Cl)c1Cl [II-17]		A (protective value: 100% to 90.0% or more)	98.2			
O=C(OCc1snc(Cl)c1Cl)c1ccccc1Cl [II-14]	B (protective value: less than 75% to 50% or more)	A (protective value: 100% to 90.0% or more)	92.4			
Cc1cccc(C)c1C(=O)OCc1snc(Cl)c1Cl [II-77]	A (protective value: 100% to 75% or more)	C (protective value: less than 80.0% to 50.0% or more)	74.1			
Cc1cccc([N+](=O)[O-])c1C(=O)OCc1snc(Cl)c1Cl [II-82]	A (protective value: 100% to 75% or more)	B (protective value: less than 90.0% to 80.0% or more)	88.0			
COC(=O)c1ccccc1C(=O)OCc1snc(Cl)c1Cl [II-24]	A (protective value: 100% to 75% or more)	A (protective value: 100% to 90.0% or more)	98.3			
O=C(OCc1snc(Cl)c1Cl)c1ccccc1 [II-1, (3,4-dichloroisothiazol-5-yl)methyl benzoate]		A (protective value: 100% to 90.0% or more)	92.3	B (protective value: less than 90.0% to 80.0% or more)	89.1	79 to 80
COc1cccc(OC)c1C(=O)OCc1snc(Cl)c1Cl [II-79]	A (protective value: 100% to 75% or more)	A (protective value: 100% to 90.0% or more)	92.3			
O=C(OCc1snc(Cl)c1Cl)c1ccccc1[N+](=O)[O-] [II-55]	A (protective value: 100% to 75% or more)	A (protective value: 100% to 90.0% or more)	98.8			
CC(=S)OCc1snc(Cl)c1Cl [I-28, (3,4-dichloroisothiazol-5-yl)methyl thioacetate]		C (protective value: less than 80.0% to 50.0% or more)	79.9			
